# The supplement of paper PMC6965134
# ± gives the standard deviation of the averaged measurements.
# Test: TIMS collisional cross section (CCS, N2) of the lipid ion; higher = larger ion cross section
# Conditions: ionization mode: positive, one isomer drawn
Compound,TIMS collisional cross section (sample type: HeLa) [Å²],TIMS collisional cross section (sample type: plasma) [Å²],TIMS collisional cross section (sample type: Liver) [Å²]
CC/C=C\C/C=C\C/C=C\C/C=C\C/C=C\C/C=C\CCC(=O)OC[C@H](COP(=O)(O)OCCN)OC(=O)CCCCCCC/C=C\CCCCCC [PE 22:6@_16:1] (ion (formula + adduct): [C43H72NO8P+H] 1+),275,–,–
CCCCCCCC/C=C\C/C=C\CCCCC(=O)O[C@H](COC(=O)CCCCCCC/C=C\CCCCCCCC)COP(=O)([O-])OCC[N+](C)(C)C [PC 18:1_18:2@] (ion (formula + adduct): [C44H82NO8P+H] 1+),290.1,–,–
CCCCCCC/C=C\CCCCCCCC(=O)OC[C@H](COC(=O)CCCCCCC/C=C\CCCCCCCC)OC(=O)CCCCCCC/C=C\CCCCCCCC [TG 17:1_18:1_18:1] (ion (formula + adduct): [C56H102O6+NH4] 1+),323.2,–,–
CCCCC/C=C\C/C=C\C/C=C\CCCCC(=O)O[C@H](COC(=O)CCCCCCC/C=C\C/C=C\CCCCC)COP(=O)([O-])OCC[N+](C)(C)C [PC 18:2_18:3] (ion (formula + adduct): [C44H78NO8P+H] 1+),–,283.6,–
CCCCCC/C=C\CCCCCCCC(=O)OC[C@@H](COC(=O)CCCCCCCCCCCCCC)OC(=O)CCCCCCCCCCCCCCC [TG 15:0_16:0_16:1] (ion (formula + adduct): [C50H94O6+NH4] 1+),–,309.2,309.02 ± 0.29
CCCC/C=C\CCCCCCCC(=O)OC[C@H](COP(=O)([O-])OCC[N+](C)(C)C)OC(=O)CCCCCCCCCCCCCCCCC [PC 14:1@_18:0] (ion (formula + adduct): [C40H78NO8P+H] 1+),282.3,–,–
CC/C=C\C/C=C\C/C=C\C/C=C\C/C=C\C/C=C\CCC(=O)OC[C@@H](COC(=O)CCCCCCC/C=C\CCCCCCCC)OC(=O)CCCCCCC/C=C\CCCCCCCCC [TG 18:1_19:1_22:6] (ion (formula + adduct): [C62H104O6+NH4] 1+),334.6,–,–
CCCCC/C=C\C/C=C\CCCCCCCC(=O)OC[C@H](COC(=O)CCCCCCCCCCC/C=C\CCCCCCCC)OC(=O)CCCCCCCCC/C=C\CCCCCCCC [TG 18:2_20:1_22:1] (ion (formula + adduct): [C63H114O6+NH4] 1+),–,340.8,–
CCCCCCCC/C=C\CCCCCCCC(=O)O[C@H](COC(=O)CCCCCCCCCCCCCCC)COP(=O)(O)OCCN [PE 16:0@_18:1] (ion (formula + adduct): [C39H76NO8P+H] 1+),–,275.3,275.7
CC/C=C\C/C=C\C/C=C\C/C=C\C/C=C\C/C=C\CCC(=O)O[C@H](CO)COP(=O)(O)OCCN [LPE 22:6] (ion (formula + adduct): [C27H44NO7P+H] 1+),–,217.7,–
CCCCC/C=C\C/C=C\C/C=C\C/C=C\CCCCCC(=O)O[C@H](COCCCCCCCCCCCCCCCC)COP(=O)([O-])OCC[N+](C)(C)C [PC O- 16:0@_22:4] (ion (formula + adduct): [C46H86NO7P+H] 1+),–,296.3,–
CC/C=C\C/C=C\C/C=C\CCCCCCCC(=O)OC[C@@H](COC(=O)CCCCCCC/C=C\CCCCCCCC)OC(=O)CCCCCCC/C=C\C/C=C\CCCCC [TG 18:1_18:2_18:3] (ion (formula + adduct): [C57H98O6+NH4] 1+),–,319.9,–
CCCCC/C=C\CCCCCCCC(=O)OC[C@@H](COC(=O)CCCCCCCCCCC)OC(=O)CCCCCCCCCCCCC [TG 12:0_14:0_15:1] (ion (formula + adduct): [C44H82O6+NH4] 1+),289.5,–,–
CCCCCCCCCCCCCCCCCCCCCC(=O)OC[C@@H](COC(=O)CCCCCCCCCCCCCC)OC(=O)CCCCCCCCCCCCCCC [TG 15:0_16:0_22:0] (ion (formula + adduct): [C56H108O6+NH4] 1+),–,328.3,–
CCCCC/C=C\C/C=C\CCCCCCCC(=O)OC[C@@H](O)COP(=O)(O)O[C@H]1C(O)C(O)C(O)[C@@H](O)C1O (some centres undefined) [LPI 18:2_0:0] (ion (formula + adduct): [C27H49O12P+H] 1+),–,243,–
CCCCC/C=C\C/C=C\C/C=C\CCCCCCC(=O)OC[C@H](COP(=O)(O)OCCN)OC(=O)CCCCCCCCCCCCCCC [PE 20:3@_16:0] (ion (formula + adduct): [C41H76NO8P+H] 1+),279.1,–,–
CC/C=C\C/C=C\C/C=C\C/C=C\C/C=C\C/C=C\CCC(=O)OC[C@@H](COC(=O)CCC/C=C\C/C=C\C/C=C\C/C=C\CCCCC)OC(=O)CCC/C=C\C/C=C\C/C=C\C/C=C\CCCCC [TG 20:4_20:4_22:6] (ion (formula + adduct): [C65H98O6+NH4] 1+),333.7,–,–
CCCCCCCC/C=C/CCCCCCCC(=O)OC[C@H](COP(=O)(O)OCCN)OC(=O)CCCCCCC/C=C/CCCCCCCC [PE 18:1_18:1] (ion (formula + adduct): [C41H78NO8P+H] 1+),279.2 ± 0.71,–,–
CC/C=C\C/C=C\C/C=C\C/C=C\C/C=C\CCCC(=O)O[C@H](COC(=O)CCC/C=C\C/C=C\C/C=C\C/C=C\CCCCC)COP(=O)([O-])OCC[N+](C)(C)C [PC 20:4_20:5] (ion (formula + adduct): [C48H78NO8P+H] 1+),290.3,–,–
CCCCCCCCCCCCCCCCCCCCCC(=O)OC[C@@H](COC(=O)CCCCCCCCCCCCCCCCC)OC(=O)CCCCCCCCCCCCCCCCCCCC [TG 18:0_21:0_22:0] (ion (formula + adduct): [C64H124O6+NH4] 1+),–,352.7,351.7
CCCCCCC/C=C\CCCCCCCC(=O)OC[C@H](COC(=O)CCCCCCCCCCC/C=C\CCCCCCCC)OC(=O)CCCCCCCCC/C=C\CCCCCCCC [TG 17:1_20:1_22:1] (ion (formula + adduct): [C62H114O6+NH4] 1+),–,–,340
CCCCCCCCCCCCCCCCCC(=O)OC[C@@H](COC(=O)CCCCCCCCCCCCCCC)OC(=O)CCCCCCCCCCCCCCCC [TG 16:0_17:0_18:0] (ion (formula + adduct): [C54H104O6+NH4] 1+),323.3,323.4,323.6
CC/C=C\C/C=C\C/C=C\C/C=C\C/C=C\C/C=C\CCC(=O)O[C@H](COC(=O)CCCCCCCCCCCCCC)COP(=O)(O)OCCN [PE 15:0@_22:6] (ion (formula + adduct): [C42H72NO8P+H] 1+),–,–,275.7
CC/C=C\C/C=C\C/C=C\C/C=C\C/C=C\C/C=C\CCC(=O)O[C@H](CO/C=C\CCCCCCCCCCCCCCCCCC)COP(=O)([O-])OCC[N+](C)(C)C [PC P- 20:0@_22:6] (ion (formula + adduct): [C50H88NO7P+H] 1+),304.8,–,–
